Assays:
[1] = target: T1, Human PDGFRα, cytoplasmic domain (GST-PDGFRα) (Homo sapiens, UniProt P16234); test: Human PDGFRα biochemical inhibition assay (off-chip Mobility Shift Assay)
T1 construct: made in house

[2] = target: T2, Human PDGFRβ, cytoplasmic domain (GST-PDGFRβ) (Homo sapiens, UniProt P09619); test: Human PDGFRβ biochemical inhibition assay (off-chip Mobility Shift Assay)
T2 construct: made in house
Outline: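 GST-tagged cytoplasmic domain (aa 557-1106) from baculovirus was incubated 1 h at room temperature with compound, CSKtide, ATP at Km and Mg²⁺ in HEPES buffer, pH 7.5. Phosphorylated and unphosphorylated peptide were separated by off-chip mobility shift, and the product ratio P/(P+S) gave percent inhibition.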

T1 sequence (P16234 550-1089 T674I): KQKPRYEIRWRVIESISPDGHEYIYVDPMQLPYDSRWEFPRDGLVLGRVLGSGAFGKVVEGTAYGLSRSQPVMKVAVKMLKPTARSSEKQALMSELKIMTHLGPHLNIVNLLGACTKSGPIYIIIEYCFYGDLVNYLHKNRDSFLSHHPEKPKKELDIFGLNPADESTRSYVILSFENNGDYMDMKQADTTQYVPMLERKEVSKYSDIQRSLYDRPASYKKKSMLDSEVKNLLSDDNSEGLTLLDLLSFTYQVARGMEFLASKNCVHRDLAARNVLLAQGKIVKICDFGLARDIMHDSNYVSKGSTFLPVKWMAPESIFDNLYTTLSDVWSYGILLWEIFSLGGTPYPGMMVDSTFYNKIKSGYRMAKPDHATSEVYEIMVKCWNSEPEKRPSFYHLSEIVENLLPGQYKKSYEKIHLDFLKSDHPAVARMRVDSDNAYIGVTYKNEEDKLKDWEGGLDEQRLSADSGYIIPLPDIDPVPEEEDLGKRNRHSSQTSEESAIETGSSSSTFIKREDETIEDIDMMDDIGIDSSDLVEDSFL
T2 sequence (P09619 with tags, fused parts or gaps): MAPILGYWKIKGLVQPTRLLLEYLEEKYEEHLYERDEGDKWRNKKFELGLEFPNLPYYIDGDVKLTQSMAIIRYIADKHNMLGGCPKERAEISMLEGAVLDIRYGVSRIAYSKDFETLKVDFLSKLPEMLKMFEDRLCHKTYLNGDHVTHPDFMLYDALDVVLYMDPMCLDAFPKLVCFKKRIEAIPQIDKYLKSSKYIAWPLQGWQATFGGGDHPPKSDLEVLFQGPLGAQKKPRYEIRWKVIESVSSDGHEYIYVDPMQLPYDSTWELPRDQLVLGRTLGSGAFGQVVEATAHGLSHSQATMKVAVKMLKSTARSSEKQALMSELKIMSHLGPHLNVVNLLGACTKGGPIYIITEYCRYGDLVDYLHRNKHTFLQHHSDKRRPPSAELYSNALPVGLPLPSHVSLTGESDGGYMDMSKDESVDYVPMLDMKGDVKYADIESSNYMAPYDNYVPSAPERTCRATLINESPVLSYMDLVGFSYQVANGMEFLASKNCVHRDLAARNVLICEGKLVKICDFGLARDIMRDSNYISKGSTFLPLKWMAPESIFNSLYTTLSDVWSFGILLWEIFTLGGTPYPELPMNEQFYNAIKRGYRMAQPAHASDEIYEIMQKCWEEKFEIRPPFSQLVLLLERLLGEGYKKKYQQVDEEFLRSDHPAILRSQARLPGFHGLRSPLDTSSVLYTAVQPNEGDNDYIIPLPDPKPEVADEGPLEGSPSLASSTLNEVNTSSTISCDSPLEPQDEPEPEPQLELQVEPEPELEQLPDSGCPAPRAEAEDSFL

Compound	IC50 [1] [nM]	IC50 [2] [nM]
Cc1cc(C(=O)Nc2cccc([C@H](C)Nc3cnc4[nH]cc(-c5cnn(C)c5)c4n3)c2)cnc1C(F)(F)F [Compound 576, (S)-5-methyl-N-(3-(1-((7-(1-methyl-1H-pyrazol-4-yl)-5H-pyrrolo[2,3-b]pyrazin-2-yl)amino)ethyl)phenyl)-6-(trifluoromethyl)nicotinamide]	< 300	< 300
CCn1cc2ncc(N[C@@H](C)c3cccc(NC(=O)c4ccc(CN5[C@@H]6CC[C@H]5CN(C)C6)c(C)c4)c3)nc2n1 [Compound 475, N-(3-((S)-1-((2-ethyl-2H-pyrazolo[3,4-b]pyrazin-6-yl)amino)ethyl)phenyl)-3-methyl-4-(((1R,5S)-3-methyl-3,8-diazabicyclo[3.2.1]octan-8-yl)methyl)benzamide]	< 300	< 300
Cc1cc(C(=O)Nc2cccc([C@H](C)Nc3cnc4cnn(C)c4n3)c2)cnc1C [Compound 206, (S)-5,6-dimethyl-N-(3-(1-((1-methyl-1H-pyrazolo[3,4-b]pyrazin-6-yl)amino)ethyl)phenyl)nicotinamide]	< 300	< 300
CCn1cc2ncc(N[C@@H](C)c3cccc(NC(=O)c4cnc5c(c4)CCCO5)c3)nc2n1 [Compound 56, (S)-N-(3-(1-((2-ethyl-2H-pyrazolo[3,4-b]pyrazin-6-yl)amino)ethyl)phenyl)-3,4-dihydro-2H-pyrano[2,3-b] pyridine-6-carboxamide]	< 300	< 300
Cc1cncc(C(=O)Nc2cccc([C@H](C)Nc3cnc4cn[nH]c4n3)c2)c1 [Compound 90, (S)-N-(3-(1-((1H-pyrazolo[3,4-b]pyrazin-6-yl)amino)ethyl)phenyl)-5-methylnicotinamide]	< 300	< 300
C[C@H](Nc1cnc2cnn(C)c2n1)c1cccc(NC(=O)c2ccc3c(c2)CCCO3)c1 [Compound 71, (S)-N-(3-(1-((1-methyl-1H-pyrazolo[3,4-b]pyrazin-6-yl)amino)ethyl)phenyl)chromane-6-carboxamide]	< 300	< 300
CCn1cc2ncc(N[C@@H](C)c3cccc(NC(=O)c4cnc(C(C)O)s4)c3)nc2n1 (stereo partly drawn) [Compound 381, N-(3-((S)-1-((2-ethyl-2H-pyrazolo[3,4-b]pyrazin-6-yl)amino)ethyl)phenyl)-2-(1-hydroxyethyl)thiazole-5-carboxamide]	< 300	300 to 1000
COc1cncc(C(=O)Nc2cccc([C@H](C)Nc3cnc4[nH]nc(C)c4n3)c2)c1 [Compound 531, (S)-5-methoxy-N-(3-(1-((3-methyl-1H-pyrazolo[3,4-b]pyrazin-5-yl)amino)ethyl)phenyl)nicotinamide]	< 300	< 300
COc1ccc(C(=O)Nc2cccc([C@H](C)Nc3cnc4cnn(C)c4n3)c2)cc1C [Compound 210, (S)-4-methoxy-3-methyl-N-(3-(1-((1-methyl-1H-pyrazolo[3,4-b]pyrazin-6-yl)amino)ethyl)phenyl)benzamide]	< 300	< 300
Cc1cncc(C(=O)Nc2cccc([C@H](C)Nc3cnc4cnn(C5COC5)c4n3)c2)c1 [Compound 179, (S)-5-methyl-N-(3-(1-((1-(oxetan-3-yl)-1H-pyrazolo[3,4-b]pyrazin-6-yl)amino)ethyl)phenyl)nicotinamide]	300 to 1000	≥ 1000
CCn1cc2ncc(N[C@@H](C)c3cc(NC(=O)Cc4ccc(C5CCC5)cn4)ccc3F)nc2n1 [Compound 667, (S)-2-(5-cyclobutylpyridin-2-yl)-N-(3-(1-((2-ethyl-2H-pyrazolo[3,4-b]pyrazin-6-yl)amino)ethyl)-4-fluorophenyl) acetamide]	< 300	≥ 1000
CCn1cc2ncc(N[C@@H](C)c3cccc(NC(=O)c4ccc(CN5CC6(COC6)C5)c(C(F)F)c4)c3)nc2n1 [Compound 506, (S)-4-((2-oxa-6-azaspiro[3.3]heptan-6-yl)methyl)-3-(difluoromethyl)-N-(3-(1-((2-ethyl-2H-pyrazolo[3,4-b]pyrazin-6-yl)amino)ethyl)phenyl)benzamide]	< 300	< 300
CCn1cc(C(=O)Nc2cccc([C@H](C)Nc3cnc4[nH]nc(C)c4n3)c2)cn1 [Compound 545, (S)-1-ethyl-N-(3-(1-((3-methyl-1H-pyrazolo[3,4-b]pyrazin-5-yl)amino)ethyl)phenyl)-1H-pyrazole-4-carboxamide]	< 300	< 300
CCn1cc2ncc(N[C@@H](C)c3cccc(NC(=O)Nc4cnc(C5CC5)c(C)c4)c3)nc2n1 [Compound 734, (S)-1-(6-cyclopropyl-5-methylpyridin-3-yl)-3-(3-(1-((2-ethyl-2H-pyrazolo[3,4-b]pyrazin-6-yl)amino)ethyl)phenyl)urea]	< 300	< 300
CCn1cc2ncc(N[C@@H](C)c3cccc(NC(=O)c4cnc(OC(C)C)c(Cl)c4)c3)nc2n1 [Compound 354, (S)-5-chloro-N-(3-(1-((2-ethyl-2H-pyrazolo[3,4-b]pyrazin-6-yl)amino)ethyl)phenyl)-6-isopropoxynicotinamide]	< 300	< 300
Cc1c[nH]c2ncc(N[C@@H](C)c3cccc(NC(=O)c4ccc(C(F)(F)F)nc4)c3)nc12 [Compound 557, (S)-N-(3-(1-((7-methyl-5H-pyrrolo[2,3-b]pyrazin-2-yl)amino)ethyl)phenyl)-6-(trifluoromethyl)nicotinamide]	< 300	< 300
Cc1cncc(C(=O)Nc2cccc([C@H](C)Nc3cnc4ccccc4c3)c2)c1 [Compound 2, (S)-5-methyl-N-(3-(1-(quinolin-3-ylamino)ethyl)phenyl)nicotinamide]	< 300	300 to 1000
CCn1cc2ncc(N[C@@H](C)c3cccc(NC(=O)c4cc(F)c(CN5CCCC5)c(Cl)c4)c3)nc2n1 [Compound 488, (S)-3-chloro-N-(3-(1-((2-ethyl-2H-pyrazolo[3,4-b]pyrazin-6-yl)amino)ethyl)phenyl)-5-fluoro-4-(pyrrolidin-1-ylmethyl) benzamide]	< 300	< 300
Cc1n[nH]c2ncc(N[C@@H](C)c3cccc(NC(=O)c4cnc(C(F)(F)F)s4)c3)nc12 [Compound 540, (S)-N-(3-(1-((3-methyl-1H-pyrazolo[3,4-b]pyrazin-5-yl)amino)ethyl)phenyl)-2-(trifluoromethyl)thiazole-5-carboxamide]	< 300	< 300
C#Cc1cncc(C(=O)Nc2cccc([C@H](C)Nc3cnc4cnn(C)c4n3)c2)c1 [Compound 113, (S)-5-ethynyl-N-(3-(1-((1-methyl-1H-pyrazolo[3,4-b]pyrazin-6-yl)amino)ethyl)phenyl)nicotinamide]	< 300	300 to 1000
CCn1cc2ncc(N[C@@H](C)c3cccc(NC(=O)c4cnc(N(C)C)c(C)c4)c3)nc2n1 [Compound 348, (S)-6-(dimethylamino)-N-(3-(1-((2-ethyl-2H-pyrazolo[3,4-b]pyrazin-6-yl)amino)ethyl)phenyl)-5-methylnicotinamide]	< 300	< 300
CCn1cc2ncc(N[C@@H](C)c3cccc(NC(=O)c4ccc(CN5C[C@@H](C)O[C@@H](C)C5)c(C)c4)c3)nc2n1 [Compound 478, 4-(((2S,6R)-2,6-dimethylmorpholino)methyl)-N-(3-((S)-1-((2-ethyl-2H-pyrazolo[3,4-b]pyrazin-6-yl)amino)ethyl)phenyl)-3-methylbenzamide]	< 300	300 to 1000
CC(C)c1cc(C(=O)Nc2cccc([C@H](C)Nc3cnc4cnn(C)c4n3)c2)on1 [Compound 145, (S)-3-isopropyl-N-(3-(1-((1-methyl-1H-pyrazolo[3,4-b]pyrazin-6-yl)amino)ethyl)phenyl)isoxazole-5-carboxamide]	< 300	< 300
CCn1cc2ncc(N[C@@H](C)c3cc(NC(=O)Cc4ccc(C(C)(C)F)cn4)ccc3C)nc2n1 [Compound 690, (S)-N-(3-(1-((2-ethyl-2H-pyrazolo[3,4-b]pyrazin-6-yl)amino)ethyl)-4-methylphenyl)-2-(5-(2-fluoropropan-2-yl)pyridin-2-yl)acetamide]	300 to 1000	≥ 1000
CCn1cc2ncc(N[C@@H](C)c3cc(NC(=O)Cc4cc(CN5CCCC5)c(C)cn4)ccc3C)nc2n1 [Compound 727, (S)-N-(3-(1-((2-ethyl-2H-pyrazolo[3,4-b]pyrazin-6-yl)amino)ethyl)-4-methylphenyl)-2-(5-methyl-4-(pyrrolidin-1-ylmethyl)pyridin-2-yl)acetamide]	≥ 1000	≥ 1000
CCn1cc2ncc(N[C@@H](C)c3cc(NC(=O)c4ccc(C(F)(F)F)nc4)ccc3C)nc2n1 [Compound 455, (S)-N-(3-(1-((2-ethyl-2H-pyrazolo[3,4-b]pyrazin-6-yl)amino)ethyl)-4-methylphenyl)-6-(trifluoromethyl)nicotinamide]	< 300	< 300
Cc1cncc(C(=O)Nc2cccc([C@H](C)Nc3cncc4c3cnn4-c3cnn(C)c3)c2)c1 [Compound 21]	< 300	< 300
CCn1cc2ncc(N[C@@H](C)c3cc(NC(=O)Cc4ccc(C(C)(C)O)cn4)ccc3F)nc2n1 [Compound 703, (S)-N-(3-(1-((2-ethyl-2H-pyrazolo[3,4-b]pyrazin-6-yl)amino)ethyl)-4-fluorophenyl)-2-(5-(2-hydroxypropan-2-yl)pyridin-2-yl)acetamide]	≥ 1000	≥ 1000
CCn1cc2ncc(N[C@@H](C)c3cccc(NC(=O)Cc4ccc(Cl)cn4)c3)nc2n1 [Compound 681, (S)-2-(5-chloropyridin-2-yl)-N-(3-(1-((2-ethyl-2H-pyrazolo[3,4-b]pyrazin-6-yl)amino)ethyl)phenyl)acetamide]	< 300	≥ 1000
CCn1cc2ncc(N[C@@H](C)c3cccc(NC(=O)c4cnc(Br)s4)c3)nc2n1 [Compound 324, (S)-2-bromo-N-(3-(1-((2-ethyl-2H-pyrazolo[3,4-b]pyrazin-6-yl)amino)ethyl)phenyl)thiazole-5-carboxamide]	< 300	300 to 1000

— patent publication US20230102554A1 (GB002, INC., priority 2019, published 2023)
